ChEMBL document CHEMBL1145498, “A systematic interaction map of validated kinase inhibitors with Ser/Thr kinases” (Proc Natl Acad Sci U S A, 2007)

The compounds below were run against Calcium/calmodulin-dependent protein kinase type 1D (Homo sapiens) (UniProt Q8IU85).
Chain of Calcium/calmodulin-dependent protein kinase type 1D (Homo sapiens) (Q8IU85 whole entry, looked up): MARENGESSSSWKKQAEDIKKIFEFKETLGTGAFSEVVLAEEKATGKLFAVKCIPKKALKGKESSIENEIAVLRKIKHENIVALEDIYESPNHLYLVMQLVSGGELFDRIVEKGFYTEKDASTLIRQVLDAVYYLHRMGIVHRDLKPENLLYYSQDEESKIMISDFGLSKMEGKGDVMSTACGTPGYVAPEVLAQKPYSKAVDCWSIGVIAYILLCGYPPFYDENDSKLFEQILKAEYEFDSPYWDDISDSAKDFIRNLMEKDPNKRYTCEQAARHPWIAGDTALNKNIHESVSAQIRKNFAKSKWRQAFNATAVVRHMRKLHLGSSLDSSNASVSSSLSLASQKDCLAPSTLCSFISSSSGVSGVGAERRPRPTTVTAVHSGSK

Point of comparison: `COc1nccc(-c2c(-c3ccc(F)cc3)ncn2[C@H]2CC[C@H](O)CC2)n1`, ΔTm -0.1 °C. Against it:
- CN1CCc2[nH]c(=S)c(C#N)c(-c3cccs3)c2C1 — higher, 1.3 °C
- CCCCc1c(-c2ccc(O)cc2)[nH]c2nccnc12 [ALOISINE A] — higher, 1.2 °C
- CC(C)[C@H](CO)Nc1nc(Nc2cc(N)cc(Cl)c2)c2ncn(C(C)C)c2n1 [AMINOPURVALANOL] — higher, 0.7 °C

The compounds below were run against Cyclin-dependent kinase 6 (Homo sapiens) (UniProt Q00534).
Chain of Cyclin-dependent kinase 6 (Homo sapiens) (Q00534 whole entry): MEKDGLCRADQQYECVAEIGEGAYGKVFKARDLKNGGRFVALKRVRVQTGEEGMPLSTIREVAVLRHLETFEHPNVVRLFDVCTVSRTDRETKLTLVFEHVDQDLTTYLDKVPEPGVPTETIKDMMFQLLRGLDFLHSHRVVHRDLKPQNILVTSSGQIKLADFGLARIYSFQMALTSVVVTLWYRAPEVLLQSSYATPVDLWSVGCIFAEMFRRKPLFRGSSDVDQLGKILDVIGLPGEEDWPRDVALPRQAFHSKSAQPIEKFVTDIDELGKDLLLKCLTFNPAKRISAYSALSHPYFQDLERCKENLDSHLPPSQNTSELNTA

Point of comparison: `COc1nccc(-c2c(-c3ccc(F)cc3)ncn2[C@H]2CC[C@H](O)CC2)n1`, ΔTm 0.1 °C. Against it:
- CN1CCc2[nH]c(=S)c(C#N)c(-c3cccs3)c2C1 — the same, 0.1 °C
- CCCCc1c(-c2ccc(O)cc2)[nH]c2nccnc12 [ALOISINE A] — higher, 1.3 °C

Each compound was assayed against Cyclin-dependent kinase-like 1 (Homo sapiens) (UniProt Q00532).
Chain of Cyclin-dependent kinase-like 1 (Homo sapiens) (Q00532 whole entry): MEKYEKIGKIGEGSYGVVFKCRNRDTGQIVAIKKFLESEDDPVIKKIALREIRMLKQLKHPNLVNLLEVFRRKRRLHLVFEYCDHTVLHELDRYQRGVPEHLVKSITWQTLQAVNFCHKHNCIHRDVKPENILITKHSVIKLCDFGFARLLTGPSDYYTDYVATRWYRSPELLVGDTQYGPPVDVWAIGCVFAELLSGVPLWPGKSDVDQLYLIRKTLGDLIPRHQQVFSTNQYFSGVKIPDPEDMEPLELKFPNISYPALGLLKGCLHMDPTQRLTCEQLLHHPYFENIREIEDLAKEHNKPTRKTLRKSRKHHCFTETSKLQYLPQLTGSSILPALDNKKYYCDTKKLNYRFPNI

Point of comparison: `COc1nccc(-c2c(-c3ccc(F)cc3)ncn2[C@H]2CC[C@H](O)CC2)n1`, ΔTm -1 °C. Against it:
- CN1CCc2[nH]c(=S)c(C#N)c(-c3cccs3)c2C1 — higher, 11.1 °C
- CCCCc1c(-c2ccc(O)cc2)[nH]c2nccnc12 [ALOISINE A] — higher, 0.1 °C
- CC(C)[C@H](CO)Nc1nc(Nc2cc(N)cc(Cl)c2)c2ncn(C(C)C)c2n1 [AMINOPURVALANOL] — higher, 2.7 °C

Each compound was assayed against Serine/threonine-protein kinase Chk2 (Homo sapiens, UniProt O96017).

Point of comparison: `CN1CCc2[nH]c(=S)c(C#N)c(-c3cccs3)c2C1`, ΔTm 5.3 °C. Against it:
- CCCCc1c(-c2ccc(O)cc2)[nH]c2nccnc12 [ALOISINE A] — higher, 5.7 °C
- COc1nccc(-c2c(-c3ccc(F)cc3)ncn2[C@H]2CC[C@H](O)CC2)n1 — lower, 1.2 °C
- CC(C)[C@H](CO)Nc1nc(Nc2cc(N)cc(Cl)c2)c2ncn(C(C)C)c2n1 [AMINOPURVALANOL] — higher, 7.5 °C

The compounds below were run against Dual specificity protein kinase CLK1 (Homo sapiens) (UniProt P49759).

Point of comparison: `CC(C)[C@H](CO)Nc1nc(Nc2cc(N)cc(Cl)c2)c2ncn(C(C)C)c2n1` [AMINOPURVALANOL], ΔTm 5.5 °C. Against it:
- CN1CCc2[nH]c(=S)c(C#N)c(-c3cccs3)c2C1 — lower, 2.4 °C
- CCCCc1c(-c2ccc(O)cc2)[nH]c2nccnc12 [ALOISINE A] — lower, 3.5 °C
- COc1nccc(-c2c(-c3ccc(F)cc3)ncn2[C@H]2CC[C@H](O)CC2)n1 — lower, 1.7 °C

Each compound was assayed against Glycogen synthase kinase-3 beta (Homo sapiens, UniProt P49841).
Chain of Glycogen synthase kinase-3 beta (P49841 whole entry, looked up): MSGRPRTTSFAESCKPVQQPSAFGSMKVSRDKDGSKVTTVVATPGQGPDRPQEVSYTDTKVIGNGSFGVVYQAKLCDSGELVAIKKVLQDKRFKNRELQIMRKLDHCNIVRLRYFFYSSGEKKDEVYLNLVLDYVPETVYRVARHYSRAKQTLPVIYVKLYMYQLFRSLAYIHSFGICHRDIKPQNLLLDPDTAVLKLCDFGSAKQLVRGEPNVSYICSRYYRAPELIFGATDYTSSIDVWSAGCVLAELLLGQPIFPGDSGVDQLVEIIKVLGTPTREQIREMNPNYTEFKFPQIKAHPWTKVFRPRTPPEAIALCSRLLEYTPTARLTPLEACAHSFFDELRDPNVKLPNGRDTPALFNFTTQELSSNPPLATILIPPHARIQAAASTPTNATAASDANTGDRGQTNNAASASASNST

Point of comparison: `COc1nccc(-c2c(-c3ccc(F)cc3)ncn2[C@H]2CC[C@H](O)CC2)n1`, ΔTm 0.4 °C. Against it:
- CN1CCc2[nH]c(=S)c(C#N)c(-c3cccs3)c2C1 — higher, 4 °C
- CCCCc1c(-c2ccc(O)cc2)[nH]c2nccnc12 [ALOISINE A] — higher, 8.3 °C
- CC(C)[C@H](CO)Nc1nc(Nc2cc(N)cc(Cl)c2)c2ncn(C(C)C)c2n1 [AMINOPURVALANOL] — higher, 0.7 °C

Each compound was assayed against Mitogen-activated protein kinase 11 (Homo sapiens, UniProt Q15759).
Chain of Mitogen-activated protein kinase 11 (Q15759 whole entry): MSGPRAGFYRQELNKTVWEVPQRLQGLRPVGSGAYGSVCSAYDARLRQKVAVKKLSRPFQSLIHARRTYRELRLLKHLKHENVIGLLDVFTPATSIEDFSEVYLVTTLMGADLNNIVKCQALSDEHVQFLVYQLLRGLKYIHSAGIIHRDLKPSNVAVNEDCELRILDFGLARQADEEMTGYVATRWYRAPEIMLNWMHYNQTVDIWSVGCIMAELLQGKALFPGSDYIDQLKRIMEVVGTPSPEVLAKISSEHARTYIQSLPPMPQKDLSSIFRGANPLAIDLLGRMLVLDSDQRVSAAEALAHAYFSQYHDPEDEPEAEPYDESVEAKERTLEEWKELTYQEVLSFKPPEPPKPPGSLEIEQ

Point of comparison: `CN1CCc2[nH]c(=S)c(C#N)c(-c3cccs3)c2C1`, ΔTm 4.3 °C. Against it:
- CCCCc1c(-c2ccc(O)cc2)[nH]c2nccnc12 [ALOISINE A] — lower, 1 °C
- COc1nccc(-c2c(-c3ccc(F)cc3)ncn2[C@H]2CC[C@H](O)CC2)n1 — higher, 6.6 °C
- CC(C)[C@H](CO)Nc1nc(Nc2cc(N)cc(Cl)c2)c2ncn(C(C)C)c2n1 [AMINOPURVALANOL] — lower, 2.8 °C

What follows are compounds tested against T1, Serine/threonine-protein kinase Nek2 (Homo sapiens) (UniProt P51955).
T1 sequence (whole entry): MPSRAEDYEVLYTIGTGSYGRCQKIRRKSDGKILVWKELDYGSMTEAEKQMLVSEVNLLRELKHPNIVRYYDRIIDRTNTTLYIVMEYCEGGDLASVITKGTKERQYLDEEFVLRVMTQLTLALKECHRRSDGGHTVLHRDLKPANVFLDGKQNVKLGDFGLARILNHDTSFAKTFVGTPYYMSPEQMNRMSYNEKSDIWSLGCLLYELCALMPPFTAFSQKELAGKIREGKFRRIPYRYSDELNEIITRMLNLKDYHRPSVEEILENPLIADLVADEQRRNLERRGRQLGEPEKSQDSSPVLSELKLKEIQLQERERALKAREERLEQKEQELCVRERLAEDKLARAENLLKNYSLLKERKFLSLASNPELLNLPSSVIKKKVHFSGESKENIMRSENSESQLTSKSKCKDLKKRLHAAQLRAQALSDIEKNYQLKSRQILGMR

Point of comparison: `COc1nccc(-c2c(-c3ccc(F)cc3)ncn2[C@H]2CC[C@H](O)CC2)n1`, ΔTm 1 °C. Against it:
- CN1CCc2[nH]c(=S)c(C#N)c(-c3cccs3)c2C1 — the same, 1 °C
- CCCCc1c(-c2ccc(O)cc2)[nH]c2nccnc12 [ALOISINE A] — lower, -0.4 °C
- CC(C)[C@H](CO)Nc1nc(Nc2cc(N)cc(Cl)c2)c2ncn(C(C)C)c2n1 [AMINOPURVALANOL] — higher, 4.8 °C

What follows are compounds tested against Serine/threonine-protein kinase PAK 5 (Homo sapiens) (UniProt Q9P286).
Chain of Serine/threonine-protein kinase PAK 5 (Homo sapiens) (Q9P286 whole entry, looked up): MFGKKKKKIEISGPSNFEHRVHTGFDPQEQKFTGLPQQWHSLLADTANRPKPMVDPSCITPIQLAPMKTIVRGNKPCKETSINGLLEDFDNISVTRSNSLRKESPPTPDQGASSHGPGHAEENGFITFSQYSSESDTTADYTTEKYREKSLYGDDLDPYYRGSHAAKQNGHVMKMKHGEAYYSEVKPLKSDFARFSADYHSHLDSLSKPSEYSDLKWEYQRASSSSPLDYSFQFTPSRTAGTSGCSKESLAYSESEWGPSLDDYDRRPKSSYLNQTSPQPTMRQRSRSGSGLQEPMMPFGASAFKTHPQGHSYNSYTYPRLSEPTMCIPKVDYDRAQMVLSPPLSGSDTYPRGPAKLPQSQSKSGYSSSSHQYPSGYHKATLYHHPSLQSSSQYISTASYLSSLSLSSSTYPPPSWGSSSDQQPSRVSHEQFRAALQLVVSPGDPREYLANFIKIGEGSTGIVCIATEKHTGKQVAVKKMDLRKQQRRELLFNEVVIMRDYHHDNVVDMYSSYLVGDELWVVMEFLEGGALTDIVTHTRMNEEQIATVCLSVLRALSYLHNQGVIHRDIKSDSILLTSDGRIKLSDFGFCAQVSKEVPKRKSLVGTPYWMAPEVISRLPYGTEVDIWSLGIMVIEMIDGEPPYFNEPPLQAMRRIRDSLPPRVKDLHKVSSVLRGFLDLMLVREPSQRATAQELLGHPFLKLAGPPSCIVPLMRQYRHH

Point of comparison: `CC(C)[C@H](CO)Nc1nc(Nc2cc(N)cc(Cl)c2)c2ncn(C(C)C)c2n1` [AMINOPURVALANOL], ΔTm 0.3 °C. Against it:
- CN1CCc2[nH]c(=S)c(C#N)c(-c3cccs3)c2C1 — higher, 0.8 °C
- CCCCc1c(-c2ccc(O)cc2)[nH]c2nccnc12 [ALOISINE A] — higher, 2.2 °C
- COc1nccc(-c2c(-c3ccc(F)cc3)ncn2[C@H]2CC[C@H](O)CC2)n1 — lower, 0.1 °C

These compounds were tested against T2, 3-phosphoinositide-dependent protein kinase 1 (Homo sapiens) (UniProt O15530).
T2 sequence (whole entry): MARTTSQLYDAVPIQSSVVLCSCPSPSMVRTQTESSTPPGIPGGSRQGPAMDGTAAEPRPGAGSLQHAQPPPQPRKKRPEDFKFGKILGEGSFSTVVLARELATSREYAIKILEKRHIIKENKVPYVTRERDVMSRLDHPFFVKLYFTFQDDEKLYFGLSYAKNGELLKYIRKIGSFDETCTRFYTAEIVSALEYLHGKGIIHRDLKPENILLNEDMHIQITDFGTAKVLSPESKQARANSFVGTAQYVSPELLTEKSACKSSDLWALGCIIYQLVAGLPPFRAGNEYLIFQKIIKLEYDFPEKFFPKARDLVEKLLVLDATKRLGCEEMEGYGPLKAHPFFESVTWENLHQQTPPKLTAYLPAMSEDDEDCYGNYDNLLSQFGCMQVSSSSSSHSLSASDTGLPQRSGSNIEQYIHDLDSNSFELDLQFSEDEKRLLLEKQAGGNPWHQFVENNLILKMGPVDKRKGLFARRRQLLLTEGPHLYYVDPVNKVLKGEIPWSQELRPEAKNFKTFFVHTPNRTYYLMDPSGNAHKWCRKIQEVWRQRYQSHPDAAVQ

Point of comparison: `CN1CCc2[nH]c(=S)c(C#N)c(-c3cccs3)c2C1`, ΔTm 1.5 °C. Against it:
- CCCCc1c(-c2ccc(O)cc2)[nH]c2nccnc12 [ALOISINE A] — higher, 4 °C
- COc1nccc(-c2c(-c3ccc(F)cc3)ncn2[C@H]2CC[C@H](O)CC2)n1 — lower, 0 °C
- CC(C)[C@H](CO)Nc1nc(Nc2cc(N)cc(Cl)c2)c2ncn(C(C)C)c2n1 [AMINOPURVALANOL] — lower, 1.4 °C

Each compound was assayed against Serine/threonine-protein kinase pim-1 (Homo sapiens) (UniProt P11309).
Chain of Serine/threonine-protein kinase pim-1 (Homo sapiens) (P11309 whole entry, looked up): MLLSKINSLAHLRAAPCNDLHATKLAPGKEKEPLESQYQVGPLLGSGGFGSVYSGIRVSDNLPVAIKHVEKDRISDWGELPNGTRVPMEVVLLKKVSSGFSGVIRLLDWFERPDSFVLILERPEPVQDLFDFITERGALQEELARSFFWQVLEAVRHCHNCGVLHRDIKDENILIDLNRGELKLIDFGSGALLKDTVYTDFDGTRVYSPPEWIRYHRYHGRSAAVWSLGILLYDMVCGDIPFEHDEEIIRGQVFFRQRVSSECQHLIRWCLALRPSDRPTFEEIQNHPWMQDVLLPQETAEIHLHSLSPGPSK

Point of comparison: `CCCCc1c(-c2ccc(O)cc2)[nH]c2nccnc12` [ALOISINE A], ΔTm 1.7 °C. Against it:
- CN1CCc2[nH]c(=S)c(C#N)c(-c3cccs3)c2C1 — lower, 1.4 °C
- COc1nccc(-c2c(-c3ccc(F)cc3)ncn2[C@H]2CC[C@H](O)CC2)n1 — lower, -0.5 °C
- CC(C)[C@H](CO)Nc1nc(Nc2cc(N)cc(Cl)c2)c2ncn(C(C)C)c2n1 [AMINOPURVALANOL] — lower, 1.2 °C

The compounds below were run against T3, Serine/threonine-protein kinase PLK4 (Homo sapiens) (UniProt O00444).
T3 sequence (whole entry): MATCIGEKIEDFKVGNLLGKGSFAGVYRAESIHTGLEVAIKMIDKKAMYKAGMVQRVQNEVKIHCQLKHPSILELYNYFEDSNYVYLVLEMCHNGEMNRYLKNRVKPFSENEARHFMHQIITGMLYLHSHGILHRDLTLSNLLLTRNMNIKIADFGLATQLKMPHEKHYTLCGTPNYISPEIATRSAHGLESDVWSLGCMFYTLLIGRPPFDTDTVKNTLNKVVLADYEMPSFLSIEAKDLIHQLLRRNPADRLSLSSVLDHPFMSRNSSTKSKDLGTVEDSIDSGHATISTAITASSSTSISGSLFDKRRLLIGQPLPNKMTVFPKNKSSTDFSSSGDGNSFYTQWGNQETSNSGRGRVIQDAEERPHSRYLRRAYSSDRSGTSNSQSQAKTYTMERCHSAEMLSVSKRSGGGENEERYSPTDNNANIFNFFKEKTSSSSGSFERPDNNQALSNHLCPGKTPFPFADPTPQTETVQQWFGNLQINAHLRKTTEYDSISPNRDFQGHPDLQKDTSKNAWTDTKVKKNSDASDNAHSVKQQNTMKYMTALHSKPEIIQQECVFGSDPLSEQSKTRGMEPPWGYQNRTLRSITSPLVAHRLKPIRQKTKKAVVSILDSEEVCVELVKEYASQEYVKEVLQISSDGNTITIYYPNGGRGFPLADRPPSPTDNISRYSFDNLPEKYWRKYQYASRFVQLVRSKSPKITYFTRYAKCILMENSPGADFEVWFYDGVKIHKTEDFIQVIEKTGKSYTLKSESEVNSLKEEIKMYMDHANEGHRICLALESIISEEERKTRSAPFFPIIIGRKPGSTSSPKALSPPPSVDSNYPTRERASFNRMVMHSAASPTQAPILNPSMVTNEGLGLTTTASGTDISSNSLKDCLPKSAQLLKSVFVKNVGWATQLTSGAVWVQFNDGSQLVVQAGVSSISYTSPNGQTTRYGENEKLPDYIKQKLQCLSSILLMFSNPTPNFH

Point of comparison: `CCCCc1c(-c2ccc(O)cc2)[nH]c2nccnc12` [ALOISINE A], ΔTm 3.4 °C. Against it:
- CN1CCc2[nH]c(=S)c(C#N)c(-c3cccs3)c2C1 — higher, 10.7 °C
- COc1nccc(-c2c(-c3ccc(F)cc3)ncn2[C@H]2CC[C@H](O)CC2)n1 — lower, 0.1 °C
- CC(C)[C@H](CO)Nc1nc(Nc2cc(N)cc(Cl)c2)c2ncn(C(C)C)c2n1 [AMINOPURVALANOL] — higher, 6.2 °C

Each compound was assayed against Ribosomal protein S6 kinase alpha-3 (Homo sapiens) (UniProt P51812).
Chain of Ribosomal protein S6 kinase alpha-3 (Homo sapiens) (P51812 whole entry): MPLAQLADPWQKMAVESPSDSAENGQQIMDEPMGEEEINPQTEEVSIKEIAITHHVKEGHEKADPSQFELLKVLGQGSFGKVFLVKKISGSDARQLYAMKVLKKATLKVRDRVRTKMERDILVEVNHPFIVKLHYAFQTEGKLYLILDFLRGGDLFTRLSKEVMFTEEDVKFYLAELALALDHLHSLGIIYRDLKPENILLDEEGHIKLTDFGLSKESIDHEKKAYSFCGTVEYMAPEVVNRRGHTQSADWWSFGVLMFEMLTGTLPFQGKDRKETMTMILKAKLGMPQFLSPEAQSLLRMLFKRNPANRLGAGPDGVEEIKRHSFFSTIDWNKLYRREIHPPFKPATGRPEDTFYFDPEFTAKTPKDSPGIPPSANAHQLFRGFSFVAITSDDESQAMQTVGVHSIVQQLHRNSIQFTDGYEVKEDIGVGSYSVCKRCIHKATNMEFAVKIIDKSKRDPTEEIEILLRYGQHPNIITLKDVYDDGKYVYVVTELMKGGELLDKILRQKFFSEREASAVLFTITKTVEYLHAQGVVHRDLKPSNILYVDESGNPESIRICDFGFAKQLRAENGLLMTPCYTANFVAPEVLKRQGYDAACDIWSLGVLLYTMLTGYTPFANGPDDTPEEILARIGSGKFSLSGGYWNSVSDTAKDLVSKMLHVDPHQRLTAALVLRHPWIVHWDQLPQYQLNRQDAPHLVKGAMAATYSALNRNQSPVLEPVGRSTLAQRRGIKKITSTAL

Point of comparison: `CCCCc1c(-c2ccc(O)cc2)[nH]c2nccnc12` [ALOISINE A], ΔTm 1.9 °C. Against it:
- CN1CCc2[nH]c(=S)c(C#N)c(-c3cccs3)c2C1 — lower, 0.9 °C
- COc1nccc(-c2c(-c3ccc(F)cc3)ncn2[C@H]2CC[C@H](O)CC2)n1 — lower, 0.2 °C
- CC(C)[C@H](CO)Nc1nc(Nc2cc(N)cc(Cl)c2)c2ncn(C(C)C)c2n1 [AMINOPURVALANOL] — higher, 3.4 °C

These compounds were tested against STE20-like serine/threonine-protein kinase (Homo sapiens) (UniProt Q9H2G2).
Chain of STE20-like serine/threonine-protein kinase (Homo sapiens) (Q9H2G2 whole entry, looked up): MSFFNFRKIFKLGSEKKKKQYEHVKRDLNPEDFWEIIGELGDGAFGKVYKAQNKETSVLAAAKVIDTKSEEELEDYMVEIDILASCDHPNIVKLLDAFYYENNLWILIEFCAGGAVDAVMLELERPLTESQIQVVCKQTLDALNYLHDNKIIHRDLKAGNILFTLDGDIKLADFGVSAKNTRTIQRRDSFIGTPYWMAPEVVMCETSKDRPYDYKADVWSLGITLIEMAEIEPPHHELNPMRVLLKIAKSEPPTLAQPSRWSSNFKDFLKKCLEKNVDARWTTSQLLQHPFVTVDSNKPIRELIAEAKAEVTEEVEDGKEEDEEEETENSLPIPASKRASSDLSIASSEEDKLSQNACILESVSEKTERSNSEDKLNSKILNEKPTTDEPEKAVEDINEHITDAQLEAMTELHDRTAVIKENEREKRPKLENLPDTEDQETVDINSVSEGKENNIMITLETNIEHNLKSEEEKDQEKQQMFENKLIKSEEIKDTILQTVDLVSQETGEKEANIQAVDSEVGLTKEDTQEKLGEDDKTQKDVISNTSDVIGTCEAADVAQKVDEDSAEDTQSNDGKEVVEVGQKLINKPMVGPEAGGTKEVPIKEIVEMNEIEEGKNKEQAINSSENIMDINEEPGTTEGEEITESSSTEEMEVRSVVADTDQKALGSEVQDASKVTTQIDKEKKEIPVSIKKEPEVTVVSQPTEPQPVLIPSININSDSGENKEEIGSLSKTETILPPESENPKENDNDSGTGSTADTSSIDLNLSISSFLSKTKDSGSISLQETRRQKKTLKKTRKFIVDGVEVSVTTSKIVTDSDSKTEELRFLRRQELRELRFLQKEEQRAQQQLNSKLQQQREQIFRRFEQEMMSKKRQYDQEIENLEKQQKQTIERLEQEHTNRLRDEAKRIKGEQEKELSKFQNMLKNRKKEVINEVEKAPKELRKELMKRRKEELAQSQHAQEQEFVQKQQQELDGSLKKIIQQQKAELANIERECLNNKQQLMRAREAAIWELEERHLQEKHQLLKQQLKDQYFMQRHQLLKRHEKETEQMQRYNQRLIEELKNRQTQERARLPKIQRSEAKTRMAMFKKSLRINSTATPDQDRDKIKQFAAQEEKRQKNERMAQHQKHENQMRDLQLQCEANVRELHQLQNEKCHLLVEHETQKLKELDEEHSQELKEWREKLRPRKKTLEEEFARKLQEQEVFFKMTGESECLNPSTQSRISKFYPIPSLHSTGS

Point of comparison: `CN1CCc2[nH]c(=S)c(C#N)c(-c3cccs3)c2C1`, ΔTm 5.9 °C. Against it:
- CCCCc1c(-c2ccc(O)cc2)[nH]c2nccnc12 [ALOISINE A] — higher, 6.8 °C
- COc1nccc(-c2c(-c3ccc(F)cc3)ncn2[C@H]2CC[C@H](O)CC2)n1 — lower, 1.9 °C
- CC(C)[C@H](CO)Nc1nc(Nc2cc(N)cc(Cl)c2)c2ncn(C(C)C)c2n1 [AMINOPURVALANOL] — lower, 3.5 °C

What follows are compounds tested against Serine/threonine-protein kinase 26 (Homo sapiens) (UniProt Q9P289).

Point of comparison: `COc1nccc(-c2c(-c3ccc(F)cc3)ncn2[C@H]2CC[C@H](O)CC2)n1`, ΔTm 2.8 °C. Against it:
- CCCCc1c(-c2ccc(O)cc2)[nH]c2nccnc12 [ALOISINE A] — higher, 4.1 °C
